{"source": "patent US20260144257A1", "about": "“VITAMIN B3 BASED PRESERVATIVE COMPOSITIONS” (SHARON PERSONAL CARE LTD., priority 2022, published 2026)", "tested_on": "tested bacteria and fungi (E. coli, S. aureus, P. aeruginosa, C. albicans, A. brasiliensis)", "assay": "Challenge test of preservative efficacy in formulations (ISO 11930)", "assay_type": "cell-based", "source_text": "Escherichia coli (ATCC 8739), Staphylococcus aureus (ATCC 6538), P. aeruginosa (ATCC 9027), Candida albicans (ATCC 10231), and Aspergillus brasiliensis (ATCC 16404) were obtained from ATCC and cultured according to the manufacturer's instructions. These microorganisms are routinely used for minimum inhibitory concentration (MIC), checkerboards and challenge tests according to the US and EU recommendations for the efficacy of preservatives in the cosmetic industry. Bacterial strains were maintained in tryptic soy agar (TSA) (Hy-labs, Rehovot, Israel), while yeast and mold strains were maintained in sabouraud dextrose agar (SDA) (Hy-labs, Israel), supplemented with oxytetracycline at a concentration of 1% (Hy-labs, Israel). Preservative efficacy assays (challenge tests) were performed in order to enumerate the number of microorganisms present in a formulation containing the preservative system, while the diluent solution was supplemented with neutralizers containing 4% Tween 20 and 0.5% lecithin (Hy-labs, Israel). Challenge tests of preservative efficacy in formulations were performed according to the ISO 11930 regulations. The total count for any prior contamination was performed for all formulations. Specifically, in order to evaluate the antimicrobial and antifungal activity of the preservative system, samples were inoculated separately with each microorganism at a final concentration of 10^6 cfu/mL for bacteria and 10^5 cfu/mL for yeast and mold. Samples were incubated in the dark at 22° C. for 28 days. […] To enumerate the microorganisms at each time point, serial dilutions were made up to 10-4, and 1 mL were seeded in duplicates onto a petri dish with the appropriate media TSA/SDA (bacteria vs. yeast and mold, respectively), using the pour plate method. Plates were incubated at 32° C. for three days for bacteria while yeast and mold were incubated at 22° C. for five days until the enumeration of viable microorganisms. [table]", "data": [{"compound": "CCCCCCC(O)CO", "note": "(stereo not drawn) [CG, Caprylyl Glycol]", "values": [{"measurement": "preservative activity", "setting": "sole application (without niacinamide)", "value": "didn't show any markable preservative activity"}]}, {"compound": "NC(=O)c1cccnc1", "note": "[niacinamide]", "values": [{"measurement": "antimicrobial activity of the single agent", "setting": "alone at the above concentrations (about 2.8% niacinamide or about 0.2% cationic surfactant)", "value": "only limited antimicrobial activity"}]}, {"compound": "polylysine", "values": [{"measurement": "preservative activity", "setting": "standalone treatment, 0.1%, non-ionic cream", "value": "didn't show any markable preservative activity"}]}]}
